Laboratory results: patent US8685394B2, “Combination of anti-CTLA4 antibody with diverse therapeutic regimens for the synergistic treatment of proliferative diseases” (Bristol-Myers Squibb Company, priority 2008, dated 2014)
“Also recorded” adds a separate entry of the source. Read-outs that look alike come from different tables or passages of the source.

Columns and labels:
M109 lung carcinoma [1] = test: M109 lung carcinoma subcutaneous tumor model; assay type: in vivo, murine; conditions: for CR / T-C (1000 mm^3) / PR / % TGI (Average): M109 s.c.; for CR: complete regression = non-palpable tumor for ≧2 assessments; for T-C (1000 mm^3): number of days to reach target tumor size 1000 mm^3, doses and schedules of Table 1; for PR: partial regression = 50% reduction in tumor volume for ≧2 assessments; for % TGI (Average): percent tumor growth inhibition, each treatment at dose (mg/kg) and schedule (study days) of Table 1
Experimental: (§1) All compounds were tested at their optimal dose and schedule. When used in combination, CTLA-4 mAb was initiated one day after the first dose of chemotherapy. Percent tumor growth inhibition and number of days to reach target tumor size were used to evaluate efficacy. Antitumor activity was scored as: complete regression (CR; non-palpable tumor for ≧2 assessments) or partial regression (PR; 50% reduction in tumor volume for ≧2 assessments).

M109 lung metastasis = test: M109 lung carcinoma model of experimental pulmonary metastasis; assay type: in vivo, murine; conditions: doses and schedules of Table 2, control vehicle 32
SA1N fibrosarcoma [2] = test: SA1N fibrosarcoma subcutaneous tumor model; assay type: in vivo, murine; conditions: SA1N s.c.; for % TGI (Average D 20-48): average of days 20-48, doses and schedules of Table 3; for CR: mice with complete regression / mice in group; for PR: mice with partial regression / mice in group; for T-C (1000 mm^3): number of days to reach target tumor size 1000 mm^3
Experimental: as §1

CT26 colon carcinoma [3] = test: CT26 colon carcinoma subcutaneous tumor model; assay type: in vivo, murine; conditions: for % TGI (Average) / CR / PR / T-C (1000 mm^3): CT26 s.c.; for % TGI (Average): doses and schedules of Table 4; for CR: mice with complete regression / mice in group; for PR: mice with partial regression / mice in group; for T-C (1000 mm^3): number of days to reach target tumor size 1000 mm^3
Experimental: as §1

tumor models = test: Antitumor activity in murine tumor models, model not stated (FIG. 6, 8, 9, 10; summary); assay type: in vivo; conditions: concurrent treatment
[4] = system: immune cells in tumor-draining lymph nodes; test: Composition of immune cells in tumor-draining lymph nodes (FIG. 13); assay type: in vivo
in vivo cytotoxicity = conditions: FIG. 12
SA1N fibrosarcoma [5] = conditions: dasatinib 30 mg/kg daily or 5 days on/2 days off, concurrent CTLA-4 mAb
CT26 colon carcinoma [6] = conditions: dasatinib 30 mg/kg, concurrent CTLA-4 mAb
M109 lung carcinoma [7] = conditions: dasatinib with CTLA-4 mAb
P815 mastocytoma = conditions: SPRYCEL 30 mg/kg P.O., anti-CTLA-4 mAb IP days 10, 14, 18
T-cell function = conditions: in vitro; concentrations of 10-50 nM; inhibition of cytokine secretion and degranulation; Weischel et al., 2008; cited from earlier work
T-cell activation = conditions: Schade et al., 2007; cited from earlier work
STAT3 = conditions: Yu, H. et al., 2007; cited from earlier work
[8] = CT26 colon carcinoma, established tumors

| Compound | CR (M109 lung carcinoma [1]) | T-C (1000 mm^3) (M109 lung carcinoma [1]) | PR (M109 lung carcinoma [1]) | % TGI (Average) (M109 lung carcinoma [1]) [%] | antitumor activity / combination effect, in words (M109 lung carcinoma [1]; M109 subcutaneous tumor model) | Median Survival Time (M109 lung metastasis) [days] | % TGI (Average D 20-48) (SA1N fibrosarcoma [2]) [%] | CR (SA1N fibrosarcoma [2]) | PR (SA1N fibrosarcoma [2]) | T-C (1000 mm^3) (SA1N fibrosarcoma [2]) | antitumor activity / combination effect, in words (CT26 colon carcinoma [3]; [8]) | % TGI (Average) (CT26 colon carcinoma [3]) [%] | CR (CT26 colon carcinoma [3]) | PR (CT26 colon carcinoma [3]) | T-C (1000 mm^3) (CT26 colon carcinoma [3]) | CTLA-4 blockade activity under concurrent chemotherapy (tumor models) | other results |
| --- | --- | --- | --- | --- | --- | --- | --- | --- | --- | --- | --- | --- | --- | --- | --- | --- | --- |
| 4′-Demethylepipodophyllotoxin 9-[4,6-O-(R)-ethylidene-β-D-glucopyranoside], 4′-(dihydrogen phosphate) [Etoposide] | 0 | 9 | 0 | 59 | modestly sensitive | 34 | 88 | 0/8 | 1/8 | 14 | effective as single agents | 66 | 1/8 | 0/8 | 11 | not abolished |  |
| Cl.Nc1ccn([C@@H]2O[C@H](CO)[C@@H](O)C2(F)F)c(=O)n1 (single isomer, unassigned) [Gemcitabine, 2′-deoxy-2′,2′-difluorocytidine monohydrochloride (β-isomer)] | 0 | 2.2 | 0 | 32 | modestly sensitive; also recorded: did not produce significant antitumor activity | 42 | 68 | 0/8 | 0/8 | 11 | effective as single agents | 102 | 2/8 | 0/8 | 12 | not abolished | antitumor activity / combination effect, in words (M109 lung carcinoma [1]; M109 subcutaneous tumor model, listed as Gem): modestly sensitive; also recorded: did not produce significant M109 antitumor activity; composition of immune cells in tumor-draining lymph nodes [4]: modulates the composition of immune cells; in vivo cytotoxicity (in vivo cytotoxicity): promote in vivo cytotoxicity |
| Cc1nc(Nc2ncc(C(=O)Nc3c(C)cccc3Cl)s2)cc(N2CCN(CCO)CC2)n1 [dasatinib, N-(2-chloro-6-methylphenyl)-2-[[6-[4-(2-hydroxyethyl)-1-piperazinyl]-2-methyl-4-pyrimidinyl]amino]-5-thiazolecarboxamide] |  |  |  |  |  |  |  |  |  |  |  |  |  |  |  |  | antitumor activity / combination effect, in words (SA1N fibrosarcoma [5]): modest antitumor activity; antitumor activity / combination effect, in words (CT26 colon carcinoma [6]): minimal activity; antitumor activity / combination effect, in words (M109 lung carcinoma [7]): minimal activity; antitumor activity / combination effect, in words (P815 mastocytoma): modest antitumor activity; effect on T-cell function (T-cell function): inhibits T-cell function; effect on T-cell activation (T-cell activation): blockade of T-cell activation; inhibition of STAT3 (STAT3): potent inhibition of STAT3 |
| CC(=O)O[C@H]1C(=O)[C@@]2(C)[C@H]([C@H](OC(=O)c3ccccc3)[C@]3(O)C[C@H](OC(=O)[C@H](O)[C@@H](NC(=O)c4ccccc4)c4ccccc4)C(C)=C1C3(C)C)[C@]1(OC(C)=O)CO[C@@H]1C[C@@H]2O [Paclitaxel, 5beta,20-Epoxy-1,2alpha,4,7beta,10beta,13alpha-hexahydroxytax-11-en-9-one 4,10-diacetate 2-benzoate 13-ester with (2R,3S)-N-benzoyl-3-phenylisoserine] | 0 | 5 | 0 | 45 |  | 38 | 65 | 0/8 | 0/8 | 13 |  | 0 | 0/8 | 0/8 | 0 | not abolished | antitumor activity / combination effect, in words (M109 lung carcinoma [1]; mouse, in vivo, sc): modestly sensitive; antitumor activity / combination effect, in words (CT26 colon carcinoma [3]; mouse, in vivo): ineffective |
